Results: the supplement of paper PMC11451515

Tests used:
Experiment in all cases: AUC of viability dose-response curve (% viability x log10 dose units); higher = less sensitive
Conditions in all cases: 48 h
NOMO1 = test system: NOMO1
How it was run: (§1)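 In 1536-well plates, leukemia cells adapted to each medium (500 or 1000 cells/well) were exposed for 48 h at 37°C to library compounds in DMSO across 11 threefold doses, 47 μM down to 0.79 nM. Viability was read by CellTiter-Glo One luminescence and normalised per plate to DMSO and cell-free wells. A four-parameter log-logistic fit over log10 doses was integrated by trapezoidal rule. This yielded the area under the curve, with over-full-viability curves scaled and quality-control failures dropped.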

P12-Ichikawa = test system: P12-Ichikawa
How it was run: as §1

SEM cells = test system: SEM cells
How it was run: as §1

[1] = RPMI 5 mM glucose + 10% dialyzed FBS

Structure (SMILES) | AUC of viability dose-response curve (NOMO1; HPLM + 10% dialyzed FBS) | AUC of viability dose-response curve (NOMO1; RPMI 5 mM glucose + 10% FBS) | AUC of viability dose-response curve (NOMO1; [1]) | AUC of viability dose-response curve (P12-Ichikawa; HPLM + 10% dialyzed FBS) | AUC of viability dose-response curve (P12-Ichikawa; RPMI 5 mM glucose + 10% FBS) | AUC of viability dose-response curve (P12-Ichikawa; [1]) | AUC of viability dose-response curve (SEM cells; HPLM + 10% dialyzed FBS) | AUC of viability dose-response curve (SEM cells; RPMI 5 mM glucose + 10% FBS) | AUC of viability dose-response curve (SEM cells; [1])
Cc1cc(OCCCc2c(C(=O)O)n(Cc3cccnc3)c3c(-c4c(COc5ccc(N6CCN([S+](C)(=O)[O-])CC6)cc5)nn(C)c4C)cccc23)cc(C)c1Cl | 452 | 418 | 443 | 452 | 441 | 446 | 441 | 441 | 439
COC1=CC=CC=C1C2=CC=CC(=C2)C/3=C(O)/C4=CC(=C(Cl)C=C4NC3=O)C#N | 368 | 401 | 400 | 361 | 388 | 380 | 350 | 288 | 344
NC(=O)c1cnc(N[C@@H]2CCCC[C@@H]2N)nc1Nc1cccc(-n2nccn2)c1 | 457 | 457 | 453 | 468 | 462 | 471 | 419 | 420 | 428
CC(=O)N(C)c1cccc(-c2ccnc3c(C(=O)c4cccs4)cnn23)c1 | 477 | 470 | 437 | 458 | 454 | 453 | 447 | 456 | 439
COC1=CC2=NC=CC(=C2C=C1)OC3=CN=C(NC(=O)C/4=C(C)/N(CC(C)(C)O)N(C4=O)C5=CC=CC=C5)C=C3 | 430 | 431 | 411 | 425 | 414 | 420 | – | – | –
C=CC(=O)Nc1cccc(Oc2nc(Nc3ccc(N4CCN(C)CC4)cc3)ncc2Cl)c1 | 465 | 454 | 459 | 420 | 392 | 421 | 369 | 303 | 351
COc1ccc(C[C@@H](C)[C@@H](C)Cc2ccc(OC)c(OC)c2)cc1OC | 326 | 315 | 328 | 355 | 353 | 354 | 336 | 364 | 320
OC1=CC=C(C=C1)\C2=C\OC3=C(C=CC(=C3)O)C2=O | 473 | 459 | 470 | 446 | 446 | 457 | 472 | 467 | 467
CCCCn1c(=O)n(Cc2ccccc2F)c(=O)c2nc(Cc3ccc(NC(C)=O)cc3)[nH]c21 | – | – | – | 425 | 409 | 410 | 452 | 442 | 444
CC[C@H](CC#N)OC(=O)N[C@@H](C)c1cccc(NC(=O)Nc2ccc(-c3cnco3)c(OC)c2)c1 | 371 | 368 | 379 | 384 | 359 | 363 | 356 | 347 | 408
NC1(Cc2ccc(Cl)cc2)CCN(c2ncnc3[nH]ccc23)CC1 | 418 | 395 | 381 | 425 | 384 | 393 | 377 | 357 | 352
COc1nccc(-c2c(-c3ccc(F)cc3)ncn2C2CCNCC2)n1 | – | – | – | 452 | 455 | 453 | 460 | 375 | 454
COc1ccc(-c2cc3nccn3c(Nc3ncccc3C(N)=O)n2)cc1OC | 444 | 476 | 473 | 471 | 475 | 471 | 380 | 405 | 352
CC\1=C/C=C\C=[N]1[Pt](N)(Cl)Cl | 471 | 465 | 463 | 472 | 467 | 464 | 427 | 465 | 421
OC[C@H]1O[C@@H](O[C@@H]2[C@@H](CO)O[C@](O)(CO)[C@H]2O)[C@H](O)[C@@H](O)[C@H]1O | 448 | 453 | 444 | 456 | 447 | 436 | 458 | 460 | 457
CN1[C@@H]2CC(OC(=O)[C@@H](CO)c3ccccc3)C[C@H]1[C@H]1O[C@H]12 (stereo partly specified) | 452 | 417 | 451 | 474 | 469 | 435 | 445 | 443 | 442
COC(=O)Nc1nc2cc(C(=O)c3cccs3)ccc2[nH]1 | 297 | 247 | 269 | 193 | 206 | 242 | 212 | 156 | 211
CCc1cc(Nc2nccc(-c3c(-c4ccc(OC)c(C(=O)Nc5c(F)cccc5F)c4)nc4ccccn34)n2)c(OC)cc1N1CCC(N2CCN([S+](C)(=O)[O-])CC2)CC1 | 459 | 464 | 457 | 453 | 451 | 453 | 423 | 435 | 386
O=C(NOCC(O)CO)c1cc(Br)c(F)c(F)c1Nc1ccc(I)cc1F (stereo unspecified) | 238 | 244 | 219 | 361 | 333 | 345 | 327 | 340 | 306
Cc1ccccc1N1C(=O)c2cc([S+](N)(=O)[O-])c(Cl)cc2NC1C (stereo unspecified) | – | – | – | 449 | 460 | 450 | 448 | 413 | 462
COC[C@H]1OC(=O)C2=COC3=C2[C@@]1(C)\C4=C(C5CCC(=O)[C@@]5(C)C[C@H]4OC(C)=O)/C3=O (stereo partly specified) | – | – | – | – | – | – | 397 | 432 | 356
CN(CC#C)C/C1=C/C2=CC=CC=C2OC3=CC=CC=C13 | 401 | 400 | 407 | 417 | 407 | 400 | – | – | –
CC(C)OC(=O)OCOP(=O)(CO[C@H](C)Cn1cnc2c(N)ncnc21)OCOC(=O)OC(C)C.O=C(O)C=CC(=O)O | 446 | 456 | 448 | – | – | – | – | – | –
CC(C)[C@@H](N(CCCN)C(=O)C1=CC=C(C)C=C1)C/2=N/C3=CC(=CC=C3C(=O)N2CC4=CC=CC=C4)Cl | 123 | 82.4 | 106 | 61 | 66.9 | 97.9 | – | – | –
